Data: paper PMC9421656, “Beyond Retigabine: Design, Synthesis, and Pharmacological Characterization of a Potent and Chemically Stable Neuronal Kv7 Channel Activator with Anticonvulsant Activity” (Journal of Medicinal Chemistry, 2022)
“Also recorded” adds a separate entry of the source.

Key:
Kv7.2/Kv7.3 channels [1] = molecular target: T1, Kv7.2/Kv7.3 channels (Homo sapiens, UniProt O43525+O43526); assay: Whole-cell patch-clamp electrophysiology in CHO cells expressing Kv7.2/Kv7.3; assay type: cell-based; set-up: expressed in transfected cells; host or cells: CHO cells, transient transfection (pcDNA3.1, Lipofectamine 2000); conditions: for EC50: dose-response 0.01–30 μM
Description: Channel subunits were expressed in Chinese hamster ovary (CHO) cells by transient transfection, using plasmids containing cDNAs encoding human Kv7.2 and/or Kv7.3, all cloned in the pcDNA3.1 vector. According to the experimental protocol, these plasmids were expressed individually or in combination, together with a plasmid-expressing enhanced green fluorescent protein (Clontech, Palo Alto, CA) used as a transfection marker. Total cDNA in the transfection mixture was kept at 4 μg. CHO cells were grown in 100 mm plastic Petri dishes in Dulbecco’s modified Eagle’s medium containing 10% fetal bovine serum, nonessential amino acids (0.1 mM), penicillin (50 U/mL), and streptomycin ([…]) in a humidified atmosphere at 37 °C with 5% CO2.
Currents from CHO cells were recorded at room temperature (20–22 °C) using the whole-cell configuration of the patch-clamp technique, with glass micropipettes of 3–5 MΩ resistance. During the recording, constant perfusion of extracellular solution was maintained. […] The pipette (intracellular) solution contained (in mM): 140 KCl, 2 MgCl2, 10 EGTA, 10 HEPES, 5 Mg^2+-ATP, at pH 7.3–7.4, with KOH. […] To evaluate the activity of each compound on Kv7.2 + Kv7.3 currents, the cells were clamped at −80 mV and conductance–voltage curves (G/V curves; activation curves) were generated by normalizing to the maximal value of the instantaneous isopotential currents at 0 mV and expressing the normalized values as a function of the preceding voltages. Data were fit to a Boltzmann distribution of the following form: y = max/[1 + exp (V1/2 – V)/k], where V is the test potential, V1/2 is the half-activation potential, and k is the slope factor.
Indicated EC50 values are the mean of at least three independent experiments ± standard error of the mean (SEM).
Statistically significant differences in electrophysiological data were evaluated with the Student t test or with ANOVA followed by the Student–Newman–Keuls test when multiple groups were compared, with the threshold set at p < 0.05. […] Values are expressed as the […] mean ± standard error of the mean (SEM) of at least three cells recorded in at least three independent transfections.

Kv7.2/Kv7.3 channels [2] = molecular target: T1, Kv7.2/Kv7.3 channels; set-up: expressed in transfected cells; conditions: cited from earlier work
Kv7.2/Kv7.3 channels [3] = molecular target: T1, Kv7.2/Kv7.3 channels; assay: FluxOR thallium-sensitive fluorescence-based assay in CHO cells stably expressing Kv7.2 + Kv7.3; assay type: cell-based; set-up: expressed in transfected cells; conditions: for Slope of the fluorescent signal at 10 μM: initial slope of FluxOR signal between 5 and 15 s, mean ± SEM; for Slope of the fluorescent signal at 10 μM / Kv7 opening activity (in words): 10 μM; for Kv7 opening activity (in words): compared with retigabine or the reference compound of the subseries
Description: While assay robustness in Kv7.2/Kv7.3-expressing cells was high (Z′ factor > 0.5),[27] the Z′ factor calculated in CHO cells expressing Kv7.2 subunits alone was <0.5; thus, all subsequent pharmacological screens were performed in Kv7.2/Kv7.3-expressing cells. […] The Kv7.2/Kv7.3-stable cell line was generated using a plasmid-based PiggyBac transposon system that enables genomic integration of multiple independent transposons containing distinct cDNA sequences. cDNAs for KCNQ2 and KCNQ3 genes (encoding for Kv7.2 and Kv7.3, respectively) were cloned into two different PiggyBac expression vectors (pB-CMV-MCS-EF1α-RedPuro, System Biosciences), and these two plasmids, together with a plasmid encoding for the transposase (System Biosciences), were transfected into CHO cells using Lipofectamine 2000 (Invitrogen) as indicated in the protocol provided by the seller company.
The selected clone stably expressing Kv7.2/Kv7.3 channels was grown in DMEM supplemented with 10% FBS, 50 U/mL Pen-Strep, 2 mM L-glutamine (all purchased from Gibco), and 4 μg/mL puromycin (Sigma) in a humidified atmosphere at 37 °C with 5% CO2. […] A kinetic dispense microplate reader (FLUOstar Optima) was used to read the plate, setting the excitation filter at 485 nm and the emission filter at 520 nm; “Stimulus buffer” prepared as indicated in the protocol was automatically added to wells after 5 s of recording; the plate was read every 1 s, for 50 s. The results were analyzed using Optima Data Analysis and Microsoft Excel.
Only experiments resulting in a Z′ > 0.5 were considered. Data shown (Figures 1D,E,F,G and 3B) were obtained from at least three independent experiments.
Data were analyzed using the GraphPad Prism 8.0.2 (GraphPad Software, LaJolla, CA). Statistically significant differences in the initial slope of the curves were evaluated through ordinary one-way ANOVA, and multiple comparisons were corrected with the Tukey test. […] Indicated EC50 values are the mean of at least three independent experiments ± standard error of the mean (SEM).

PTZ-induced seizures = assay: Pentylenetetrazol (PTZ)-induced acute seizures in mice; assay type: in vivo, C57Bl/6 mice; conditions: XE991 alone, 3 mg/kg i.p.
Description: A subcutaneous (s.c.) injection of 100 mg/kg PTZ in mice is able to trigger convulsive behavior whose intensity can be assessed and quantified according to the revised Lüttjohann’s scale (see Materials and Methods),[40] using a 9-point severity score ranging from 0 (whisker trembling) to 8 (wild jumping). For each animal, the maximal severity score (Figure 5A) and the time latency required to reach such values (Figure 5B) were recorded.
Food and water were available ad libitum. Animals were experimentally naive and were used only once.
Thus, each dose was dissolved to allow injection of 0.01 mL/g, i.p. The control group was represented by mice injected only with vehicle solution (saline containing 2% Tween-20 and 2% PEG-400).
PTZ was injected, and animals were placed in clear Plexiglass boxes for observation of seizure activity. The severity of convulsions (from minimal “clonic” to maximal “generalized tonic–clonic”) as well as the latency to onset of maximal seizure was recorded.
0 = whisker trembling, 1 = sudden behavioral arrest, 2 = facial jerking, 3 = neck jerks, 4 = clonic seizures (sitting), 5 = tonic clonic seizures (lying on belly), 6 = clonic seizures (lying on side), 7 = tonic clonic seizures (lying on side), 8 = wild jumping. The behavioral assessments described above were performed in a blind manner and the observers had to reach a unanimous agreement regarding the scoring of the behavior.
The number of animals needed for the experiment was determined using the power analysis software GPower version 3.1.92. The required minimum sample size was 8 mice per group. Statistical analyses were performed using GraphPad Prism (GraphPad Software, LaJolla, CA) using a one-way analysis of variance with the Tukey post-hoc test. The P value of <0.05 was accepted as indicative of a statistically significant difference.

[4] = Photostability under UV-visible light with HPLC analysis (degradation, dimer formation); assay type: physicochemical; conditions: for % Degradation (3h, UV): 10 μM, buffered aqueous solution pH 7.4, 3 h UV-visible light, ± SD; for Dimers Formation / Photodegradation (in words): 3 h UV-visible light; for Dimers Formation: HPLC at 550 nm; for Photodegradation (in words): compared with retigabine
From the text: Two different HPLC wavelengths were utilized: (a) […] to evaluate the decreased concentration of the starting molecule; (b) 550 nm to investigate the formation of phenazine/phenazinium dimers, as previously described.[10] Unfortunately, dimer formation was detected for all tested compounds, except for 23 and 24. […]. […]. The first group consisted of N4 (−X- in Table 2) substituted analogues, in which the tertiary amine is unavailable for the formation of phenazine dimers (compounds 25–28). […]. The third group included derivatives replacing hydrogen atoms with electron-withdrawing fluorine atoms at position R2 of the benzene-1,2,4-triamine core scaffold (compounds 59, 60), a strategy likely reducing the reactivity of N2 and N4. […].
Photostability experiments were performed by dissolving compounds in DMSO and then diluting in buffered aqueous solutions at pH 7.4 to a final concentration of 10 μM. 1 cm quartz cells, filled with the abovementioned solutions, were irradiated by a UV lamp (UV Consulting TQ 150 equipped with Duran 50 sleeve and 150 W power supply unit, Peschl, Germany) at a fixed distance of 20 cm from the UV source. Control samples were maintained at 37 °C, wrapped with aluminum foil to avoid light exposure, and used to assess chemical stability of the compounds. At predetermined intervals, aliquots were withdrawn and analyzed by UHPLC in order to assess the concentration decrease of the starting materials and the presence of the dimers usually formed by retigabine.
Photostability and chemical stability experiments were carried out on a Kinetex^TM C18 150 × 2.1 mm × 2.6 μm (100 Å) column (Phenomenex, Bologna, Italy). The optimal mobile phase consisted of 0.1% TFA/H2O v/v (A) and 0.1% TFA/ACN v/v (B). Analysis was performed in gradient elution as follows: 0–13.0 min, 5–65% B; 13–14.0 min, 65–95% B; 14–15.0 min, isocratic to 95% B; 15–15.01 min, 95–5% B; then 3 min for column re-equilibration. The flow rate was 0.5 mL min^–1. The column oven temperature was set to 45 °C. The injection volume was 7 μL of sample. The following PDA parameters were applied: sampling rate, 12.5 Hz; detector time constant, 0.160 s; cell temperature, 40 °C. Data acquisition was set in the range 190–800 nm, and chromatograms were monitored at 224 nm to assess the decrease in concentration of the starting material, while a wavelength of 550 nm was used to eventually detect dimerization.

[5] = In vitro metabolism assay (S9 fraction of human liver microsomes); assay type: in vitro ADME; conditions: human
Description: To further explore the metabolic stability of compounds 25, 26, and 60 in a biologically relevant model, they were tested in an in vitro metabolism assay (S9 fraction of human liver microsomes) using retigabine as a comparator.[33],[34] In this assay, a very small extent (4.7 ± 0.5%) of retigabine undergoes phase I metabolism, whereas a larger fraction (17.4 ± 1.2%) was metabolized in phase II reactions, as previously reported.[35]

| Compound | Slope of the fluorescent signal at 10 μM (Kv7.2/Kv7.3 channels [3]) | % Degradation (3h, UV) [4] | Dimers Formation [4] | Kv7 opening activity (in words) (Kv7.2/Kv7.3 channels [3]) | also measured |
| --- | --- | --- | --- | --- | --- |
| CCOC(=O)Nc1ccc(NCc2ccc(C(F)(F)F)cc2)c(F)c1N [RL-81] | 0.0272±0.0014 |  |  |  | Leftward shift in V1/2 (ΔV1/2) (Kv7.2/Kv7.3 channels [1]; 1 μM): about 40 mV; Idrug/Icontrol (maximal current density) (Kv7.2/Kv7.3 channels [1]; calculated at +20 mV): 1.6 ± 0.2; EC50 (Kv7.2/Kv7.3 channels [1]; current at +20 mV, read-out: Maximal currents EC50): 0.27 ± 0.04 µM; EC50 (Kv7.2/Kv7.3 channels [1]; read-out: ΔV1/2 EC50): 0.24 ± 0.06 µM; Potency over retigabine as Kv7.2/Kv7.3 activator (fold/times) (Kv7.2/Kv7.3 channels [1]; from ΔV1/2 EC50): 10; Potency relative to retigabine as a Kv7 activator in vitro (Kv7.2/Kv7.3 channels [2]): > 15 times; EC50 (Kv7.2/Kv7.3 channels [3]; FluxOR dose-response, slope parameter, read-out: EC50 (initial slope of the fluorescence signal)): 4 ± 1 µM |
| CCOC(=O)Nc1ccc(NCc2ccc(F)cc2)c(F)c1N [SF0034] |  |  |  |  | Potency relative to retigabine in activating Kv7.2/Kv7.3 channels in vitro (Kv7.2/Kv7.3 channels [2]): five times more potent than retigabine |
| O=C1c2ccccc2C(Cc2ccncc2)(Cc2ccncc2)c2ccccc21 [XE991, reference compound] |  |  |  |  | Effect on seizure severity score or latency (PTZ-induced seizures): did not affect; Effect on retigabine-induced increase of maximal fluorescence and initial slope (Kv7.2/Kv7.3 channels [3]; 10 μM XE991 with retigabine): abolished |
| CCCCCCC(=O)Nc1ccc(N(C)Cc2ccc(C(F)(F)F)cc2)cc1N [compound 25, N-(2-Amino-4-(methyl(4-(trifluoromethyl)benzyl)amino)phenyl)heptanamide] | 0.0637±0.0033 | 63.3±2.8% | did not form dimers and No | improved agonist activity; also recorded: higher than that of retigabine | Photodegradation (in words) [4]: underwent extensive photodegradation; Phase I turnover metabolism [5]: 20.6 ± 1.4%; Phase II turnover metabolism [5]: 33.2 ± 1.0% |
| CN(Cc1ccc(C(F)(F)F)cc1)c1ccc(NC(=O)CC(C)(C)C)c(N)c1 [compound 26, N-(2-Amino-4-(methyl(4-(trifluoromethyl)benzyl)amino)phenyl)-3,3-dimethylbutanamide] | 0.0721±0.0034 | 99.5±0.1% | did not form dimers and No | improved agonist activity; also recorded: higher than that of retigabine | Photodegradation (in words) [4]: underwent extensive photodegradation; Phase I turnover metabolism [5]: 32.1 ± 1.2%; Phase II turnover metabolism [5]: 32.7 ± 0.3% |
| CCCCCCC(=O)Nc1ccc(NCc2ccccc2)cc1N [compound 41, N-(2-Amino-4-(benzylamino)phenyl)heptanamide] | 0.0476±0.0030 | 19.5±4.7% | Yes | no change in activity |  |
| CC(C)(C)CC(=O)Nc1ccc(NCc2c(F)cccc2F)cc1N [compound 43, N-(2-Amino-4-((2,6-difluorobenzyl)amino)phenyl)-3,3-dimethylbutanamide] | 0.0534±0.0028 | 98.4±0.2% | Yes | still displayed strong activity |  |
| CCCCCCC(=O)Nc1ccc(NCc2ccccc2F)cc1N [compound 52, N-(2-Amino-4-((2-fluorobenzyl)amino)phenyl)heptanamide] | 0.0448±0.0035 | 74.9± 0.1% | Yes | no change in activity |  |
